Patent US20250250308A1, “METHODS AND COMPOSITIONS WITH ANTIFUNGAL ACTIVITY” (priority 2022, published 2025)
“Also recorded” adds a separate entry of the source.

B1: EntV: 68 amino acid active C-terminal form of the E. faecalis bacteriocin EntV (SEQ ID NO: 14) (protein, listed as Enterococcus faecalis)
chain: LGSCVANKIKDEFFAMISISAIVKAAQKKAWKELAVTVLRFAKANGLKTNAIIVAGQLALWAVQCGLS

Columns and labels:
C. albicans [1] = test: Rat venous catheter biofilm model; format: in vivo; conditions: 24 h
Protocol: The wild-type 12-mer (SEQ ID NO: 4) is protective in a rat venous catheter model of C. albicans infection. C. albicans can form prodigious biofilms on implanted medical devices and the presence of an intravenous catheter is, by itself, a significant risk factor for developing disseminated candidiasis. These infections are notoriously difficult to treat and are associated with the drug resistance characteristic of biofilms. Thus, full-length EntV was tested in a model in which an intravenous catheter is implanted into the jugular vein of rats and inoculated with C. albicans with or without the peptide. After 24 hours, the catheter is removed and sectioned to assess fungal burden by plating for CFUs and by scanning electron microscopy (SEM). […] As the minimal peptide length was determined, this model utilized along with the 12-mer peptide, this time at a lower concentration to probe the extent of protection.
Rat catheter model: The protocol for the rat catheter biofilm was conducted as previously described (Andes, et al., 2004). Briefly, indwelling central venous catheters in rats were inoculated with 1×10^6 cells/mL C. albicans with or without 100 nM EntV or 20 nM 12-mer peptide (group size was 3). To quantitate fungal burden after 24 h, the catheter was removed, and 1 cm of the tip placed in a one milliliter of sterile 0.9% NaCl followed by vortexing. A 1:10 serial dilution of this wash fluid was plated on SDA and colonies counted after 24 h of growth at 35° C. For scanning electron microscopy (SEM), catheters were fixed overnight in 4% formaldehyde and 1% glutaraldehyde in PBS. The catheters were then washed with PBS and treated with 1% osmium tetroxide in PBS for 30 min. Serial ethanol washes and critical point drying were used to dry the segments before they were mounted, and palladium-gold coated. All images were taken using a SEM LEO 1530, with Adobe Photoshop CC (20.0.4 release) used for image compilation.

C. albicans [2] = test: C. albicans adhesion assay (polystyrene plates, crystal violet); format: cell-based; conditions: vs. DMSO control
Protocol: This, like many manifestations of Candida infections, requires adhesion of the fungal cell to surfaces, both biotic and abiotic, whereupon biofilm structures are commonly formed. A model in which binding to plastic surfaces is a measure of the initial stage of biofilm differentiation. In this assay, cells are incubated in polystyrene 96 well plates with the peptides in PBS for one hour and then overlaid with artificial saliva media for 90 minutes before washing and quantitation of adhesion using crystal violet.
C. albicans adhesion assays. The C. albicans adhesion assays were performed using similar techniques as described previously (Gulati et al., 2018). C. albicans strains were grown in YPD broth for 18 h at 30° C. with agitation and then sub-cultured for 4 h in the same conditions. Cells were then collected by centrifugation, washed twice in PBS, and adjusted to a concentration of 1×10^7 cells/ml (measured with Countess II, Life Technologies) in PBS treated with the indicated concentrations of test compounds. The cell suspension was incubated for 1 h at 30° C. with agitation. […]
The adhered cell layer was then stained for 20 minutes with 40 μl of 0.08% crystal violet solution (diluted, Sigma). […] The optical density at 595 nm (OD595) was measured using a Synergy H1 plate reader (BioTek) with Gen5 version 3.08 software (BioTek).

C. albicans [3] = test: Mouse OPC (oropharyngeal candidiasis) model; format: in vivo
Protocol: Mouse OPC model. The efficacy of EntV fragments were tested in the OPC model as described (Graham et al., 2017; Solis and Filler, 2012). Mice were immunosuppressed by injecting 225 mg/kg cortisone acetate subcutaneously 1 d before inoculation, and subsequently on days 1 and 3 of the infection. Group size was 6-8. To prepare the inoculum, 1 ml of C. albicans (SC5314) overnight culture grown at 30° C. in YPD broth was washed twice in PBS before resuspension in sterile Hanks' balanced salt solution (HBSS) at a concentration of 1×10^6 cells/mL. Calcium alginate swabs were soaked in this inoculum for 5 minutes prior to inoculation. Mice were anesthetized using ketamine and xylazine and placed on pre-warmed isothermal pads and the swabs were placed sublingually for 75 min. Mice were given additional doses of ketamine (50 mg/kg), as necessary. After inoculation, mice were given drinking water with EntV fragments or DMSO (0.01%) in the drinking water ad libitum. Mice were euthanized at 5 d after inoculation, unless noted. The tongues were excised and cut in half laterally for tissue histology and assessment of fungal burden.
For tissue histology the tongue sample was placed in 10% zinc-buffered formalin overnight and stored in 80% ethanol, before embedding in paraffin. For each tongue, 5 μm sections were prepared using a Leica microtome and stained using Periodic Acid-Schiff (PAS) stain. Epithelial invasion was measured from 40× images taken of the entire tissue section of each tongue half with the total area of epithelium and infected epithelium were measured using ImageJ (version 1.6). Measurements were totaled and expressed as a percentage of total infected epithelium relative to the entire epithelial area (Graham et al., 2017; Moyes et al., 2016).
For examination of fungal burden, qPCR was used by amplifying a 269-bp fragment of the internal transcribed spacer 2 (ITS2) between the 5.8S and 28S ribosomal RNA genes of C. albicans (Graham et al., 2017; Khot et al., 2009). DNA was extracted from homogenized tongue tissue using the Yeast DNA Extraction Kit (Thermo Scientific) according to the protocol with minor modifications. The ITS2 fragment was amplified by qPCR was performed with a CFX96 Real-Time System with a C1000 Touch thermal cycler (BioRad). C. albicans gDNA was quantified using FastStart Universal SYBR Green master mix with ROX (Roche). To screen for contamination and background fluorescence during the qPCR amplification, no template controls were used.

mouse cells = conditions: cited from earlier work
[4] = 10 nM and 1 nM in drinking water
[5] = 100 nM in drinking water for 5 days following inoculation
[6] = 100 nM starting at day three, sacrificed on day five

Molecule | Catheter surface biofilm by SEM (C. albicans [1]; 20 nM) | Reduction of catheter fungal burden (C. albicans [1]; 20 nM) [logs] | Adhesion of C. albicans to polystyrene (C. albicans [2]) | Epithelial invasion (C. albicans [3]; [4]) | Fungal burden on the tongue (C. albicans [3]; [4]) | Fungal burden (C. albicans [3]; 50 nM in drinking water) | Hyphal invasion (C. albicans [3]; 50 nM in drinking water) | Hyphal invasion relative to fluconazole (C. albicans [3]; 100 nM and 500 nM vs. 4 μg/mL fluconazole) | Fungal burden in the tongue (C. albicans DNA by qPCR) (C. albicans [3]; [5]) | Hyphal (epithelial) invasion of the tongue (C. albicans [3]; 100 nM in drinking water for 5 days following inoculation, listed as 12-mer) | Fungal burden, treatment of established infection (C. albicans [3]; [6]) | Hyphal invasion, treatment of established infection (C. albicans [3]; [6]) | Fungal burden relative to fluconazole (C. albicans [3]; 100 nM vs. 4 μg/mL fluconazole, day 5) | Catheter fungal burden (CFUs) (C. albicans [1]; 100 nM, detection limit 100 CFU) | Toxicity to mouse cells (mouse cells)
VAGQLALWAVQC [12aa] | largely clear of fungal biofilm | 1.5 | as effective in protecting against C. albicans infection in the worm model and inhibiting surface adhesion as full-length EntV | the reduction in invasion remains dramatic | only a slight reduction in fungal burden on the tongue | loss of efficacy in terms of fungal burden | still a significant lowering of hyphal invasion | slightly less prevalent | equally effective | at least as effective as the full length EntV; also recorded: most reduced | significantly less fungal burden compared to both groups of untreated animals | The same patterns were observed | even more effective at reducing fungal burden than 4 μg/mL fluconazole |  | 
B1 |  |  | significantly reduced adhesion to polystyrene |  |  |  |  |  | significantly reduced the fungal burden |  |  |  |  | below the limit of detection | no toxicity
